From ChEMBL document CHEMBL4219138, “Discovery of N-aryl-N'-pyrimidin-4-yl ureas as irreversible L858R/T790M mutant selective epidermal growth factor receptor inhibitors” (Bioorg Med Chem Lett, 2018) come the findings set out here.

The test system of test [1] is NCI-H1975. In words: Antiproliferative activity against human NCI-H1975 cells harboring EGFR L858R/T790M mutant after 72 hrs by MTT assay. Format: functional, cell-based. The following applies: NCI-H1975, 72 h.
The subject of test [2] is A-431. Kind of test: Antiproliferative activity against human A431 cells harboring wild-type EGFR after 72 hrs by MTT assay. The following applies: A-431, 72 h. The format is functional, cell-based. For orientation: Tetrazolium dyes change colour on reduction, which living cells bring about.
Test [3] addresses T1, Epidermal growth factor receptor (Homo sapiens, UniProt P00533, L858R/T790M). Kind of test: Inhibition of EGFR L858R/T790M mutant phosphorylation in human NCI-H1975 cells after 1 hr by ELISA. The format is cell-based. (In general: An ELISA detects its analyte on a solid surface through an enzyme-linked reagent.)
For test [4], the target named is T2, Epidermal growth factor receptor (Homo sapiens, UniProt P00533). In words: Inhibition of recombinant human GST-tagged wild-type EGFR cytoplasmic domain (668 to 1210 residues) expressed in baculovirus expression system using tyrosine04 peptide as substrate after 60 mins in presence of ATP by Z-LYTE assay.
T2 sequence (P00533 whole entry, the tested form may be a part): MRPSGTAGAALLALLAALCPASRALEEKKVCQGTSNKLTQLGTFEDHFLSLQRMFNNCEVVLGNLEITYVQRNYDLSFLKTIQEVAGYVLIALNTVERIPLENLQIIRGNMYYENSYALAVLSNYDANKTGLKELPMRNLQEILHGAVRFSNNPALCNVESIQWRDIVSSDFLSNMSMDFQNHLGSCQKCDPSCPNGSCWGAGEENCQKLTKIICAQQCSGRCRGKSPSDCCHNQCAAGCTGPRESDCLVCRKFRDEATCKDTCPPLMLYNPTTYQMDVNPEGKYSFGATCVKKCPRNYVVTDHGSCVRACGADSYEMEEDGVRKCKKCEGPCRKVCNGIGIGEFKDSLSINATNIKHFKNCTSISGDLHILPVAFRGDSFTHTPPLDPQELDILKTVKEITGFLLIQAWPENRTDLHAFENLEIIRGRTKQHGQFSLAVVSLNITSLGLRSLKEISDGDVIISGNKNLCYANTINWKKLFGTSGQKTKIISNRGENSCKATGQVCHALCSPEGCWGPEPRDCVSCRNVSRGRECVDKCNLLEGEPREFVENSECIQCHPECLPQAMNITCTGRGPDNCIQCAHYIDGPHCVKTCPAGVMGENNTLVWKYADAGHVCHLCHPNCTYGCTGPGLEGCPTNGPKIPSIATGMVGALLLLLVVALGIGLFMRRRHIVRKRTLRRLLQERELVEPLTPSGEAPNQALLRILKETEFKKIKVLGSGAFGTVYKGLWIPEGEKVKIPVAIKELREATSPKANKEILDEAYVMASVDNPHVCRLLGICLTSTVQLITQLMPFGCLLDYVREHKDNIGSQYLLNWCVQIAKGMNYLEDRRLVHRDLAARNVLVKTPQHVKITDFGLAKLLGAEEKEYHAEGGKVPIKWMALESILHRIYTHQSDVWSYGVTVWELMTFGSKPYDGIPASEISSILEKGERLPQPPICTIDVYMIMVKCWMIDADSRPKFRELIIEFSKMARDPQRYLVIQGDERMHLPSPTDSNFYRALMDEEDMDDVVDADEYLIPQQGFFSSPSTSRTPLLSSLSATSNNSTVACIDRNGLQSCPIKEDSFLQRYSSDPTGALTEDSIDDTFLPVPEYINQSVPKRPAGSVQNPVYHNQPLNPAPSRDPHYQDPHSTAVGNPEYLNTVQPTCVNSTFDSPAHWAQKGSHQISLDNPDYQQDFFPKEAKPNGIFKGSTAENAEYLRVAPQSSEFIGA
The target of test [5] is T2, Epidermal growth factor receptor. Kind of test: Inhibition of wild-type EGFR phosphorylation in human A431 cells preincubated for 1 hr followed by EGF stimulation measured after 45 mins by ELISA. The format is cell-based.
For test [6], the target named is T1, Epidermal growth factor receptor. In words: Inhibition of recombinant human GST-tagged EGFR L858R/T790M mutant cytoplasmic domain (668 to 1210 residues) expressed in baculovirus expression system using tyrosine04 peptide as substrate after 60 mins in presence of ATP by Z-LYTE assay.
Test [7] in a line: Selectivity ratio of IC50 for human A431 cells harboring wild-type EGFR to IC50 for human NCI-H1975 cells harboring EGFR L858R/T790M mutant. The format is functional.

Some results are limits rather than exact numbers.

T1 sequence (P00533 25-1210 T790M/L858R limits assumed): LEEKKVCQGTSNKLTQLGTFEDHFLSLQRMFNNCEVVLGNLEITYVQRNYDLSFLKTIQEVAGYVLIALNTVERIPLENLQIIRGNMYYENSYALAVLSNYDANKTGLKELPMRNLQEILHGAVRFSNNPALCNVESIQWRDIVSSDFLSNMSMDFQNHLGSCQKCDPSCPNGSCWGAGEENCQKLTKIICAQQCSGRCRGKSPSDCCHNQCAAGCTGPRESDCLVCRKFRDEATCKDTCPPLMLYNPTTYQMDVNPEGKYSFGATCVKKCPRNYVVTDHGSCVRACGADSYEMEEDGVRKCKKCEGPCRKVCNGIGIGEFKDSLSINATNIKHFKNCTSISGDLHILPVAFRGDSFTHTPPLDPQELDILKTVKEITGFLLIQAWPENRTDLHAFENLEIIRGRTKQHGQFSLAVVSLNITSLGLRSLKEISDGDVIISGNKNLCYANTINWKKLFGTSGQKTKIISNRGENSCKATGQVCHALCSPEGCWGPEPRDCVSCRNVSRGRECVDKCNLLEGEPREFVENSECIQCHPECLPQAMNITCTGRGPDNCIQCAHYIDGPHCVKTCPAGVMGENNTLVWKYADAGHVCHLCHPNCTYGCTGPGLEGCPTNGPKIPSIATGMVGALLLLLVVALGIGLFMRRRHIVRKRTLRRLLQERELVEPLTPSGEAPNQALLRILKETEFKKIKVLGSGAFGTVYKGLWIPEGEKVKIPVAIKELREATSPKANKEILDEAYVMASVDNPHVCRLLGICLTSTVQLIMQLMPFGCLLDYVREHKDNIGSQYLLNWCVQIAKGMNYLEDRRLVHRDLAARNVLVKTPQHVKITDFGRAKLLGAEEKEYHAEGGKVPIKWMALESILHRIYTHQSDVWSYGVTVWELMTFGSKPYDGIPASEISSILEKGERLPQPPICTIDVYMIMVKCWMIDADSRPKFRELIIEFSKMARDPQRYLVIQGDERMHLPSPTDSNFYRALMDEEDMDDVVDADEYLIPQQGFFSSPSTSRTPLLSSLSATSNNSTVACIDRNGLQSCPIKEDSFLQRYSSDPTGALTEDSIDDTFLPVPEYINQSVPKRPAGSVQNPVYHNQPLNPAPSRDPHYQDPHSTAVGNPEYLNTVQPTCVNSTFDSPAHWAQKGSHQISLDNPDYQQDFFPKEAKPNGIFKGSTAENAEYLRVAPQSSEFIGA

The term IC50 denotes the concentration that gives 50% inhibition. With `C=CC(=O)Nc1cccc(Oc2nc(Nc3ccc(N4CCN(C)CC4)cc3OC)ncc2Cl)c1`, the IC50 in test [1] was 0.027 µM; in test [2], 1.24 µM.

For `C=CC(=O)Nc1cccc(Oc2nc(Nc3ccc(N4CCN(C(C)=O)CC4)cc3OC)ncc2C(F)(F)F)c1`, the IC50 in test [3] is 0.132 µM; in test [1], 0.117 µM; in test [4], 0.067 µM; in test [2], 2.53 µM; in test [5], 1.03 µM; in test [6] it was 0.007 µM.

In the case of `C=CC(=O)Nc1cccc(NC(=O)N(C)c2ccnc(Nc3ccc(N4CCN(C)CC4)cc3OC)n2)c1`, the IC50 in test [4] and in test [6] was > 1 µM each time.

In the case of `C=CC(=O)Nc1cccc(NC(=O)Nc2ccnc(Nc3ccc(N4CCC(N5CCN(C)CC5)CC4)cc3OC)n2)c1`, the IC50 in test [3] was 0.105 µM; in test [1], 0.106 µM; in test [4], 0.08 µM; in test [5] it was 2.34 µM; in test [6], 0.005 µM.

As to `C=CC(=O)Nc1cccc(NC(=O)Nc2ccnc(Nc3ccc(N4CCC(N(C)C)CC4)cc3OC)n2)c1`, the half-maximal inhibitory concentration (IC50) in test [3] is 0.082 µM; in test [1], 0.107 µM; in test [4], 0.045 µM; in test [2], 3.38 µM; in test [5], 1.54 µM; in test [6], 0.002 µM.

Regarding `C=CC(=O)Nc1cccc(NC(=O)Nc2ccnc(Nc3ccc(N(C)CCN(C)C)cc3OC)n2)c1`, the IC50 amounted to 0.43 µM in test [3]; 0.502 µM in test [1]; 0.049 µM in test [4]; 3.4 µM in test [2]; 1.7 µM in test [5]; 0.019 µM in test [6].

Regarding `C=CC(=O)Nc1cccc(NC(=O)Nc2ccnc(Nc3ccc(N(C)C)cc3)n2)c1`, the IC50 in test [4] turned out to be 0.462 µM; in test [6], 0.17 µM.

In the case of `C=CC(=O)Nc1cccc(NC(=O)Nc2ccnc(Nc3ccc(C4CCN(C)CC4)cc3)n2)c1`, the IC50 in test [4] is > 1 µM; in test [6] it was 0.51 µM.

As for `C=CC(=O)Nc1cccc(NC(=O)Nc2ccnc(Nc3ccc(N4CCC(N5CCOCC5)CC4)cc3OC)n2)c1`, the IC50 in test [3] was 0.041 µM; in test [1] it was 0.037 µM; in test [4], 0.086 µM; in test [2] it was > 10 µM; in test [5], 6.46 µM; in test [6], 0.004 µM. Further, the “Ratio IC50” value in test [7] is on record as >270.

With `C=CC(=O)Nc1cccc(NC(=O)Nc2ccnc(Nc3ccc(C(=O)N4CCN(C)CC4)cc3OC)n2)c1`, the values for the IC50 in test [4] and in test [6] were 0.972 µM and 0.215 µM, respectively.

For `C=CC(=O)Nc1cccc(NC(=O)Nc2nc(Nc3ccc(N4CCC(N5CCOCC5)CC4)cc3OC)ncc2C(F)(F)F)c1`, the IC50 is > 1 µM in test [4] and 0.27 µM in test [6].

As for `C=CC(=O)Nc1cccc(NC(=O)Nc2ccnc(Nc3ccc(C4CCN(C)CC4)cc3OC)n2)c1`, the IC50 is 0.13 µM in test [3]; 0.075 µM in test [1]; 0.273 µM in test [4]; > 10 µM in test [2]; 5 µM in test [5]; 0.028 µM in test [6].

In the case of `C=CC(=O)Nc1cccc(NC(=O)Nc2nc(Nc3ccc(N4CCC(N5CCOCC5)CC4)cc3OC)ncc2Cl)c1`, the IC50 in test [3] worked out at 0.131 µM; in test [1], 0.199 µM; in test [4] it was 0.641 µM; in test [2], 2.59 µM; in test [5] it was 2.21 µM; in test [6], 0.037 µM.

As for `C=CC(=O)Nc1cccc(NC(=O)C(C)(C)c2ccnc(Nc3ccc(N4CCN(C)CC4)cc3OC)n2)c1`, the IC50 in test [4] and in test [6] was > 1 µM throughout.

On to `C=CC(=O)Nc1cccc(NC(=O)Nc2ccnc(Nc3ccc(N4CCOCC4)cc3OC)n2)c1`, for which the IC50 was 0.218 µM in test [3]; 0.173 µM in test [1]; 0.225 µM in test [4]; > 10 µM in test [5]; 0.015 µM in test [6].

Consider `C=CC(=O)Nc1cccc(NC(=O)Nc2ccnc(Nc3ccc(N4CCN(C)CC4)cc3)n2)c1`, for which the IC50 in test [3] was 3.15 µM; in test [1], 1.93 µM; in test [4], 0.143 µM; in test [6], 0.048 µM.

`C=CC(=O)Nc1cccc(NC(=O)Nc2ccnc(Nc3ccc(N4CCOCC4)cc3)n2)c1`: the IC50 in test [3] is > 10 µM; in test [1], 7.52 µM; in test [4] it was 0.644 µM; in test [2] it was > 10 µM; in test [5], > 10 µM; in test [6], 0.087 µM.

Regarding `C=CC(=O)Nc1cccc(NC(=O)Nc2ccnc(Nc3ccccc3OC)n2)c1`, the IC50 in test [4] is > 1 µM; in test [6] it was 0.192 µM.

`C=CC(=O)Nc1cccc(NC(=O)Nc2ccnc(Nc3ccc(N4CCN(CCF)CC4)cc3OC)n2)c1`: the IC50 is 0.511 µM in test [3]; 0.519 µM in test [1]; 0.158 µM in test [4]; > 10 µM in test [5]; 0.022 µM in test [6].

Regarding `C=CC(=O)Nc1cccc(NC(=O)Nc2ccnc(Nc3ccc(OC)cc3OC)n2)c1`, the IC50 in test [3] was found to be 0.391 µM; in test [1] it was 0.467 µM; in test [4] it was 0.348 µM; in test [6] it was 0.058 µM.

With `C=CC(=O)Nc1cccc(NC(=O)Nc2ccnc(Nc3ccc(OCCOC)cc3)n2)c1`, the IC50 is > 1 µM in test [4] and 0.266 µM in test [6].

Turning to `C=CC(=O)Nc1cccc(NC(=O)Nc2ccnc(Nc3ccc(N4CCC(N(CC)CC)CC4)cc3OC)n2)c1`, the IC50 in test [1] was 0.031 µM; in test [2] it was 2.01 µM.

On to `C=CC(=O)NC1CCCN(C(=O)Nc2ccnc(Nc3ccc(N4CCN(C)CC4)cc3OC)n2)C1` (centres undefined), for which the IC50 in test [4] and in test [6] was > 1 µM throughout.

On to `C=CC(=O)Nc1cccc(NC(=O)Nc2ccnc(Nc3ccc(N4CCN(C)CC4)cc3OC)n2)c1`, for which the IC50 amounted to 0.906 µM in test [3], 0.525 µM in test [1], 0.017 µM in test [4] and 0.017 µM in test [6].

As for `C=CC(=O)Nc1cccc(NC(=O)Nc2ccnc(Nc3ccc(C(=O)N4CCOCC4)cc3OC)n2)c1`, the IC50 in test [4] was > 1 µM; in test [6], 0.128 µM.

As to `C=CC(=O)Nc1cccc(NC(=O)Nc2ccnc(Nc3ccc(N(CC)CC)cc3OC)n2)c1`, the IC50 was 0.112 µM in test [3]; 0.086 µM in test [1]; 0.183 µM in test [4]; > 10 µM in test [2]; > 10 µM in test [5]; 0.012 µM in test [6].

Turning to `C=CC(=O)Nc1cccc(NC(=O)C2(C(=O)Nc3ccnc(Nc4ccc(N5CCN(C)CC5)cc4OC)n3)CC2)c1`, the IC50 in test [4] and in test [6] was > 1 µM in each case.

Regarding `C=CC(=O)Nc1cc(Nc2nccc(-c3cn(C)c4ccccc34)n2)c(OC)cc1N(C)CCN(C)C` [OSIMERTINIB], the IC50 in test [1] turned out to be […]; in test [2] it was […].
